Drawing on patent US20050019850A1, “Method for identifying fungicidally active compounds based on guanylate kinases” (priority 2003, published 2005), this text covers Km for two compounds.

The assay has as its target U. maydis guanylate kinase (Mycosarcoma maydis, UniProt A0A0D1DZ04). Kind of assay: Determination of the KM value of guanylate kinase for its substrates (Lineweaver/Burk). Format: biochemical, Ustilago maydis. To be noted: read-out: KM value; FIG. 3, Lineweaver/Burk representation; substrate of guanylate kinase.

Sequence of U. maydis guanylate kinase (A0A0D1DZ04 118-213, added parts left off): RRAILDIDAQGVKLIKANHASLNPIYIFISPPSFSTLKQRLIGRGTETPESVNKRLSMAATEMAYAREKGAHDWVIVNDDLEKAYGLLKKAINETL
Excerpt: Lineweaver/Burk representation of the data: 1/Vo=1/Vmax+1/S×(KM/Vmax), wherein Vo is the initial reaction rate, Vmax the maximum conversion rate possible and S the substrate concentration. Vmax and KM can then be read as the intercepts on the horizontal and the vertical axes 1/Vmax and 1/KM, respectively.
Here, pyruvate kinase converts phosphoenolpyruvate into pyruvate, which is then utilised by lactate dehydrogenase for oxidizing NADH to give NAD. The NAD concentration, which increases owing to the coupled reaction, or the NADH concentration, which decreases owing to the coupled reaction, can be measured photospectrometrically by absorption or fluorescence measurement (absorption drops at 340 nm, fluorescence drops at 340 nm (emission at 465 nm)).

The Km is the substrate concentration at which the rate is half of its maximum. For `Nc1ncnc2c1ncn2[C@@H]1O[C@H](COP(=O)(O)OP(=O)(O)OP(=O)(O)O)[C@@H](O)[C@H]1O` [ATP], the Km turned out to be 100 µM.
For the compound `Nc1nc2c(ncn2[C@@H]2O[C@H](COP(=O)(O)O)[C@@H](O)[C@H]2O)c(=O)[nH]1` [GMP], the Km is 40 µM.
